From patent publication US9745320B2, “Five-and-six-membered heterocyclic compound, and preparation method, pharmaceutical composition and use thereof” (SHANGHAI CHEMEXPLORER CO., LTD., priority 2013, dated 2017)

Legend:
Format in all cases: biochemical
JAK1 = JAK1 (Homo sapiens, UniProt P23458); experiment: JAK 1 enzymatic inhibitory activity IC50 assay (Caliper conversion rate); details: Km ATP, 28° C., 1 hour
Experimental: (§1) Biological effect: intracytoplasmic JAK 1,2,3 enzymatic inhibitory activity IC50 assay
(§2) JAK1 buffer solution: 25 mM HEPES, pH 7.5, 0.01% Brij-35, 0.01 M Triton. JAK2,3 buffer solution: 50 mM HEPES, pH 7.5, 0.0015% Brij-35.
(§3) 2. Compound was formulated in 100% DMSO in a concentration gradient, deposited to a 384-well plate with a final concentration of 2% of DMSO.
(§4) 3. JAK2,3 enzymes were diluted to having an optimum concentration with the following buffer: 50 mM HEPES, pH 7.5, 0.0015% Brij-35, 2 mM DTT. JAK1 enzyme was diluted to having an optimum concentration with the following buffer: 25 mM HEPES, pH 7.5, 0.01% Brij-35, 2 mM DTT, 0.01M Triton. Then they were transferred to a 384-well plate and incubated with the compound for a certain time.
(§5) 4. JAK2,3 substrate was diluted to having an optimum concentration with the following buffer: 50 mM HEPES, pH 7.5, 0.0015% Brij-35, 10 mM MgCl2, Km adenosine triphosphate. JAK1 substrate was diluted to having an optimum concentration with the following buffer: 25 mM HEPES, pH 7.5, 0.01% Brij-35, 10 mM MgCl2, 0.01 M Triton. Km adenosine triphosphate was added into 384-well plates to initiate reactions, and the reaction were carried out at 28° C. for 1 hour.
(§6) 5. Read the conversion rate by Caliper Reader, and the inhibition rate are calculated according to the average of two tests.

JAK2 = JAK2 (Homo sapiens, UniProt O60674); experiment: JAK 2 enzymatic inhibitory activity IC50 assay (Caliper conversion rate); details: Km ATP, 28° C., 1 hour
Chain of JAK2 (O60674 whole entry, species assumed): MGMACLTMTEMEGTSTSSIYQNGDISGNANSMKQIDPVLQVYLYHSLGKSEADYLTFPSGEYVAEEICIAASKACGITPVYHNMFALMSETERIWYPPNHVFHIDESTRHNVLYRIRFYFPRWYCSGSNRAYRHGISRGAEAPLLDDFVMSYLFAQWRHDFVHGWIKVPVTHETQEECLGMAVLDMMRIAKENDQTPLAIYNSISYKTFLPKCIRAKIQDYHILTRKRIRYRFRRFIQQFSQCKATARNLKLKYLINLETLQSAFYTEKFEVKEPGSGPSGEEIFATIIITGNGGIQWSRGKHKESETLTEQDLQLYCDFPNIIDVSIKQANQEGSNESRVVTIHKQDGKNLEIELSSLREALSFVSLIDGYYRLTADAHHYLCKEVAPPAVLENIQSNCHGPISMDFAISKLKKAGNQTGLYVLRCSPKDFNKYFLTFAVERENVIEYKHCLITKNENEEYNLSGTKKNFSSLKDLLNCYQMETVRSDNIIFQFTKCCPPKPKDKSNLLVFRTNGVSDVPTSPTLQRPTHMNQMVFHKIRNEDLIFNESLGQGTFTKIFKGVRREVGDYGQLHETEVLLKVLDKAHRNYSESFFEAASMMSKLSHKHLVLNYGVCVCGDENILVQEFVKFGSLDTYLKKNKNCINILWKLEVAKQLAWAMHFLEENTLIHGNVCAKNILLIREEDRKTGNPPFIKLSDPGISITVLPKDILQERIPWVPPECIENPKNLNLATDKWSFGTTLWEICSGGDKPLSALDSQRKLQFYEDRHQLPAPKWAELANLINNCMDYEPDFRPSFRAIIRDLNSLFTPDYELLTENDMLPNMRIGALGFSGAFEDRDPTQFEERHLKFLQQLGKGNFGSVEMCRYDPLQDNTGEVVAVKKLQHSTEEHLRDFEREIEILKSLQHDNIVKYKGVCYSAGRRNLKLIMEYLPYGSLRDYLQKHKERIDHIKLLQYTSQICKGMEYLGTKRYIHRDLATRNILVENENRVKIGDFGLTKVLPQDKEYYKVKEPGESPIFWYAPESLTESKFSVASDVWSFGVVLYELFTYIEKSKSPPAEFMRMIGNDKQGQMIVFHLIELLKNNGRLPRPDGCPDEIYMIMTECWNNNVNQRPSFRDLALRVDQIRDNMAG
Experimental: as §1, §2, §3, §4, §5, §6

JAK3 = biological target: T1, JAK3 (Homo sapiens, UniProt P52333); experiment: JAK 3 enzymatic inhibitory activity IC50 assay (Caliper conversion rate); details: Km ATP, 28° C., 1 hour; read-out: JAK 3 enzymatic inhibitory activity IC50
T1 sequence (P52333 1-1124): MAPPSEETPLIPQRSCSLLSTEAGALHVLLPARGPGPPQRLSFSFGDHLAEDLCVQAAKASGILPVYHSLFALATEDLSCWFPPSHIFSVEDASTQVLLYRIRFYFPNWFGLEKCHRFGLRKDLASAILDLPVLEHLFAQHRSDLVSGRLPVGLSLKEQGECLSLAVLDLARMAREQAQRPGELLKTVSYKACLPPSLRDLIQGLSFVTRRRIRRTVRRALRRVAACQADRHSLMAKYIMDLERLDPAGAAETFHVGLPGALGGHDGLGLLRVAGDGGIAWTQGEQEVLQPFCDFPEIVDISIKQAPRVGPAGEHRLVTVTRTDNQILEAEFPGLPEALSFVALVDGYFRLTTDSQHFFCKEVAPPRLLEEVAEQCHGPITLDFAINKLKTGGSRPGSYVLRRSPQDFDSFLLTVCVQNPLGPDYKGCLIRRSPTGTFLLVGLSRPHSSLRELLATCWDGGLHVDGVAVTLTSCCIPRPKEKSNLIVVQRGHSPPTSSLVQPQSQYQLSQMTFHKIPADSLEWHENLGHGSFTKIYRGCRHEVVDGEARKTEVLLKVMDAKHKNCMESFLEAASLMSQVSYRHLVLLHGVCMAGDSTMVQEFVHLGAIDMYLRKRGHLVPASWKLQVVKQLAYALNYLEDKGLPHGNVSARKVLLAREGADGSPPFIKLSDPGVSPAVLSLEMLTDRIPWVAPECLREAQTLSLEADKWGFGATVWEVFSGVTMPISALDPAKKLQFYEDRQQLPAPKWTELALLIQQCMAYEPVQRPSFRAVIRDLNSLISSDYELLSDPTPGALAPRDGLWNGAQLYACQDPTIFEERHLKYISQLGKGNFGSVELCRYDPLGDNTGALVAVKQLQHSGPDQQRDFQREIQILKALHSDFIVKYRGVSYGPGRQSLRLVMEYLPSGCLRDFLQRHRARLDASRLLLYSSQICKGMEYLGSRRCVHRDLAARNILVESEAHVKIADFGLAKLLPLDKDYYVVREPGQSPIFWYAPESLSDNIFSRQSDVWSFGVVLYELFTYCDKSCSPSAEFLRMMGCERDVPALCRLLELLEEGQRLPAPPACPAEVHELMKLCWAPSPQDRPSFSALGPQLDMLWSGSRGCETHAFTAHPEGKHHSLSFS
Experimental: as §1, §2, §3
as §4, with “time. […]” for “time.”
as §6

Chain of JAK1 (P23458 whole entry, species assumed): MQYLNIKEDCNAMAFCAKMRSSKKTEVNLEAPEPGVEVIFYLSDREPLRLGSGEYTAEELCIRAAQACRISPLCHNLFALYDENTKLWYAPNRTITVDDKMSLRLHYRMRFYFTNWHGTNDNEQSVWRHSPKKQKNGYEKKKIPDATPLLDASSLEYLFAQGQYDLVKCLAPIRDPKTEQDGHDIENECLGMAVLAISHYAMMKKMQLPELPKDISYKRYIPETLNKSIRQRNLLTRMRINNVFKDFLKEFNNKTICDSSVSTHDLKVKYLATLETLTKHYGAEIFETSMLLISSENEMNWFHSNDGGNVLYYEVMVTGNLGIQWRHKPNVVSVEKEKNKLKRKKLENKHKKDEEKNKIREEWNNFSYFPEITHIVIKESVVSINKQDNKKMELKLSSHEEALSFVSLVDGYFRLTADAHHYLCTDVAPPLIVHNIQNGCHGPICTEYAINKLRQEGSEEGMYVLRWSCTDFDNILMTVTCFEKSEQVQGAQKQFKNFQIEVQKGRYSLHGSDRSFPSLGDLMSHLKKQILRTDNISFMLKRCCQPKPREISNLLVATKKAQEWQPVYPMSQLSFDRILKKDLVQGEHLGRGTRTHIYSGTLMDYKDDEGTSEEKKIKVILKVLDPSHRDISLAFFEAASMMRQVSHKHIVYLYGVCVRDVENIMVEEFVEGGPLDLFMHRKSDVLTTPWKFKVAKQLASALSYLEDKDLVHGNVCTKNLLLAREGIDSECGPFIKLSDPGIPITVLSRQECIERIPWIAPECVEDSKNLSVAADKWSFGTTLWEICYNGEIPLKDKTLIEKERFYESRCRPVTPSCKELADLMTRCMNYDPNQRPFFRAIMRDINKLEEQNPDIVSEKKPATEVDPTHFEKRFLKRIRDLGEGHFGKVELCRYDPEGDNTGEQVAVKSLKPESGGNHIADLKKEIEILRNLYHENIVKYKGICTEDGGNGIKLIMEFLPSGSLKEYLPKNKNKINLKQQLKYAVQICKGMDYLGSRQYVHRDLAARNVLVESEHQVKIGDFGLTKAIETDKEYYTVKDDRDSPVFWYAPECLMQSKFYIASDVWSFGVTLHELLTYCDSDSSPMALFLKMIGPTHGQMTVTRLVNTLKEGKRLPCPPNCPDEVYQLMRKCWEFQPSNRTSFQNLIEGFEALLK

Structure (SMILES)	IC50 (JAK1) [nM]	IC50 (JAK2) [nM]	IC50 (JAK3) [nM]
CCS(=O)(=O)N1CC(CC#N)(n2cc(-c3nc(Nc4ccc5[nH]cnc5c4)nc4ccsc34)cn2)C1 [Compound T-58, 2-(3-(4-(2-((1H-Benzo[d]imidazol-5-yl)amino)thieno[3,2-d]pyrimidin-4-yl)-1H-pyrazol-1-yl)-1-(ethylsulfonyl)azetidin-3-yl)acetonitrile]	< 50	< 50	50 to 500
CCS(=O)(=O)N1CC(CC#N)(n2cc(-c3nc(Nc4ccc(N5CCOCC5)nc4)nc4ccsc34)cn2)C1 [Compound T-62, 2-(1-(Ethylsulfonyl)-3-(4-(2-((6-morpholinopyridin-3-yl)amino)thieno[3,2-d]pyrimidin-4-yl)-1H-pyrazol-1-yl)azetidin-3-yl)acetonitrile]	50 to 500	< 50	50 to 500
CCS(=O)(=O)N1CC(CC#N)(n2cc(-c3nc(Nc4ccc(C#N)nc4)nc4ccsc34)cn2)C1 [Compound T-22, 5-((4-(1-(3-(Cyanomethyl)-1-(ethylsulfonyl)azetidin-3-yl)-1H-pyrazol-4-yl)thieno[3,2-d]pyrimidin-2-yl)amino)picolinonitrile]	> 1000	< 50	> 1000
Cn1cc(Nc2nc(-c3cnn(C4(CC#N)CC(F)C4)c3)c3sccc3n2)cn1 (stereo not drawn) [Compound T-77, 2-(3-Fluoro-1-(4-(2-((1-methyl-1H-pyrazol-4-yl)amino)thieno[3,2-d]pyrimidin-4-yl)-1H-pyrazol-1-yl)cyclobutyl)acetonitrile]	50 to 500	< 50	50 to 500
CCS(=O)(=O)N1CC(CC#N)(n2cc(-c3nc(Nc4cnn(CCO)c4)nc4ccsc34)cn2)C1 [Compound T-51, 2-(1-(Ethylsulfonyl)-3-(4-(2-((1-(2-hydroxyethyl)-1H-pyrazol-4-yl)amino)thieno[3,2-d]pyrimidin-4-yl)-1H-pyrazol-1-yl)azetidin-3-yl)acetonitrile]	< 50	< 50	< 50
C[C@@H](O)Cn1cc(Nc2nc(-c3cnn(C4(CC#N)COC4)c3)c3sccc3n2)cn1 [Compound T-80, (R)-2-(3-(4-(2-((1-(2-Hydroxypropyl)-1H-pyrazol-4-yl)amino)thieno[3,2-d]pyrimidin-4-yl)-1H-pyrazol-1-yl)oxetan-3-yl)acetonitrile]	50 to 500	< 50	50 to 500
CS(=O)(=O)CCCn1cc(Nc2nc(-c3cnn(C4(CC#N)CCC4)c3)c3sccc3n2)cn1 [Compound T-73, 2-(1-(4-(2-((1-(3-(Methylsulfonyl)propyl)-1H-pyrazol-4-yl)amino)thieno[3,2-d]pyrimidin-4-yl)-1H-pyrazol-1-yl)cyclobutyl)acetonitrile]	50 to 500	< 50	50 to 500
CCS(=O)(=O)N1CC(CC#N)(n2cc(-c3nc(Nc4ccc(N5CCOCC5)cc4)nc4ccsc34)cn2)C1 [Compound T-07, 2-(1-(Ethylsulfonyl)-3-(4-(2-((4-morpholinophenyl)amino)thieno[3,2-d]pyrimidin-4-yl)-1H-pyrazol-1-yl)azetidin-3-yl)acetonitrile]	< 50	< 50	50 to 500
CCS(=O)(=O)N1CC(CC#N)(n2cc(-c3nc(Nc4cnn(CCCN5CCOCC5)c4)nc4ccsc34)cn2)C1 [Compound T-60, 2-(1-(Ethylsulfonyl)-3-(4-(2-((1-(3-morpholinopropyl)-1H-pyrazol-4-yl)amino)thieno[3,2-d]pyrimidin-4-yl)-1H-pyrazol-1-yl)azetidin-3-yl)acetonitrile]	< 50	< 50	< 50
C[C@@H](CO)n1cc(Nc2nc(-c3cnn(C4(CC#N)COC4)c3)c3sccc3n2)cn1 [Compound T-83, (S)-2-(3-(4-(2-((1-(1-Hydroxypropan-2-yl)-1H-pyrazol-4-yl)amino)thieno[3,2-d]pyrimidin-4-yl)-1H-pyrazol-1-yl)oxetan-3-yl)acetonitrile]	< 50	< 50	50 to 500
CCS(=O)(=O)N1CC(CC#N)(n2cc(-c3nc(Nc4cnn(C5CN(CC6CC6)C5)c4)nc4ccsc34)cn2)C1 [Compound T-66, 2-(3-(4-(2-((1-(1-(Cyclopropylmethyl)azetidin-3-yl)-1H-pyrazol-4-yl)amino)thieno[3,2-d]pyrimidin-4-yl)-1H-pyrazol-1-yl)-1-(ethylsulfonyl)azetidin-3-yl)acetonitrile]	< 50	< 50	< 50
CCS(=O)(=O)N1CC(CC#N)(n2cc(-c3nc(Nc4cncnc4)nc4ccsc34)cn2)C1 [Compound T-14, 2-(1-(Ethylsulfonyl)-3-(4-(2-(pyrimidin-5-ylamino)thieno[3,2-d]pyrimidin-4-yl)-1H-pyrazol-1-yl)azetidin-3-yl)acetonitrile]	500 to 1000	< 50	> 1000
C[C@H](CO)n1cc(Nc2nc(-c3cnn(C4(CC#N)COC4)c3)c3sccc3n2)cn1 [Compound T-82, (R)-2-(3-(4-(2-((1-(1-Hydroxypropan-2-yl)-1H-pyrazol-4-yl)amino)thieno[3,2-d]pyrimidin-4-yl)-1H-pyrazol-1-yl)oxetan-3-yl)acetonitrile]	50 to 500	< 50	50 to 500
CC(C)(O)Cn1cc(Nc2nc(-c3cnn(C4(CC#N)CN(S(C)(=O)=O)C4)c3)c3sccc3n2)cn1 [Compound T-78, 2-(3-(4-(2-((1-(2-Hydroxy-2-methylpropyl)-1H-pyrazol-4-yl)amino)thieno[3,2-d]pyrimidin-4-yl)-1H-pyrazol-1-yl)-1-(methylsulfonyl)azetidin-3-yl)acetonitrile]	< 50	< 50	< 50
CCS(=O)(=O)N1CC(CC#N)(n2cc(-c3nc(Nc4ccc5[nH]ncc5c4)nc4ccsc34)cn2)C1 [Compound T-57, 2-(3-(4-(2-((1H-Indazol-5-yl)amino)thieno[3,2-d]pyrimidin-4-yl)-1H-pyrazol-1-yl)-1-(ethylsulfonyl)azetidin-3-yl)acetonitrile]	50 to 500	< 50	50 to 500
CC(C)(CO)n1cc(Nc2nc(-c3cnn(C4(CC#N)CN(S(C)(=O)=O)C4)c3)c3sccc3n2)cn1 [Compound T-79, 2-(3-(4-(2-((1-(1-Hydroxy-2-methylpropan-2-yl)-1H-pyrazol-4-yl)amino)thieno[3,2-d]pyrimidin-4-yl)-1H-pyrazol-1-yl)-1-(methylsulfonyl)azetidin-3-yl)acetonitrile]	< 50	< 50	< 50
N#CCC1(n2cc(-c3nc(Nc4cnn(C5CC5)c4)nc4ccsc34)cn2)CC1 [Compound T-76, 2-(1-(4-(2-((1-Cyclopropyl-1H-pyrazol-4-yl)amino)thieno[3,2-d]pyrimidin-4-yl)-1H-pyrazol-1-yl)cyclopropyl)acetonitrile]	50 to 500	< 50	50 to 500
